Reference: ChEMBL document CHEMBL1909046, “DrugMatrix in vitro pharmacology data”

Key:
[1] = biological target: T1, C-X-C chemokine receptor type 1 (Homo sapiens, UniProt P25024); further: in other assays of this panel Not Active means under 50% inhibition at 10 µM
T1 sequence (P25024 whole entry): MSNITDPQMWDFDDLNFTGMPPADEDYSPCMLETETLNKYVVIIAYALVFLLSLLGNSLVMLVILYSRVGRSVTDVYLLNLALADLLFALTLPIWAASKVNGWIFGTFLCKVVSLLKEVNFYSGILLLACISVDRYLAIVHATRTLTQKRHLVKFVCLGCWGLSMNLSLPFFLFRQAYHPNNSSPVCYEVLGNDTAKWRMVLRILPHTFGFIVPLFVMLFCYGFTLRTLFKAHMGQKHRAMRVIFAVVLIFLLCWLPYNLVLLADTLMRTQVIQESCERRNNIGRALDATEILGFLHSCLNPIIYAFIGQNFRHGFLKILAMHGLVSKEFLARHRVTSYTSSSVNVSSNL

[2] = biological target: T2, Neuropeptide Y receptor type 1 (Homo sapiens, UniProt P25929); assay type: cell membranes, Membrane; conditions: sk-n-mc; further: in other assays of this panel Not Active means under 50% inhibition at 10 µM
T2 sequence (P25929 whole entry): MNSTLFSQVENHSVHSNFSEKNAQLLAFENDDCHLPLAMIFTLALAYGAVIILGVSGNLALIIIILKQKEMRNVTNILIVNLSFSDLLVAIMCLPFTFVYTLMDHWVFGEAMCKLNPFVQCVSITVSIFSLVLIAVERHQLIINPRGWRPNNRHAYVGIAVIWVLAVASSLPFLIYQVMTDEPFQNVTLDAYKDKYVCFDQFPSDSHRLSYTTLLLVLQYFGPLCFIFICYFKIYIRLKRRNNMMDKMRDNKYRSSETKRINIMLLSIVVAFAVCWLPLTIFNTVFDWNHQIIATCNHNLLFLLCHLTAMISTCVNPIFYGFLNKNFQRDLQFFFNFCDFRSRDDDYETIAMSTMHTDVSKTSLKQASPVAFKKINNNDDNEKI

Histamine H2 receptor = Histamine H2 receptor (Homo sapiens, UniProt P25021); assay type: cell membranes, CHO-K1, Membrane; further: in other assays of this panel Not Active means under 50% inhibition at 10 µM
[3] = DRUGMATRIX: Tumor Necrosis Factor (TNF), Non-Selective radioligand binding (ligand: [125I] TNF-alpha); assay type: cell membranes, Membrane; conditions: u-937; Not Active = under 50% inhibition at 10 µM
[4] = biological target: T3, Polyunsaturated fatty acid lipoxygenase ALOX15 (Oryctolagus cuniculus, UniProt P12530); experiment: biochemical; assay type: tissue-based, Reticulocytes;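 further: inhibition of 15-lipoxygenase enzyme activity measured with linoleic acid as the substrate; in other assays of this panel Not Active means under 50% inhibition at 10 µM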
T3 sequence (P12530 whole entry): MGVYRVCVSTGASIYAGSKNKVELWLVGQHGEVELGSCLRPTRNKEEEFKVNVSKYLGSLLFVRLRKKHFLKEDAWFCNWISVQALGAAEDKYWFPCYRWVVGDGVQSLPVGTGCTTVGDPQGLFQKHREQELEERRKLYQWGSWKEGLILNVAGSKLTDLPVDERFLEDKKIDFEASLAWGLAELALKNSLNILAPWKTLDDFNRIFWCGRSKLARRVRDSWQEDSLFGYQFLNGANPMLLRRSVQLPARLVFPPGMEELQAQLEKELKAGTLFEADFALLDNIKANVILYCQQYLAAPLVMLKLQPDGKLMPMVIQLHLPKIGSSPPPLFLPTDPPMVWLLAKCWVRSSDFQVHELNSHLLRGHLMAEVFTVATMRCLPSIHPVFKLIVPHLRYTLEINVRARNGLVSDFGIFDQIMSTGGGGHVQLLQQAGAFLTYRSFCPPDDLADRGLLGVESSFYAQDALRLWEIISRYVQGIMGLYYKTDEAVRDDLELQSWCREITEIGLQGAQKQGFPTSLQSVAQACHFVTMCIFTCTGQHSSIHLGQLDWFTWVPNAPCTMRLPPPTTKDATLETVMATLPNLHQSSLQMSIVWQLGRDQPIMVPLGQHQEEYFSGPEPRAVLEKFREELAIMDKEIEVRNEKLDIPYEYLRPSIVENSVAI

[5] = DRUGMATRIX: GABAA, Flunitrazepam, Central radioligand binding (ligand: [3H] Flunitrazepam); assay type: cell membranes, Rattus norvegicus, Wistar, Brain, Membrane; conditions: Not Active = under 50% inhibition at 10 µM
Cathepsin G = biological target: T4, Cathepsin G (Homo sapiens, UniProt P08311); experiment: biochemical; assay type: tissue-based, Neutrophil; conditions: neutrophil
T4 sequence (P08311 whole entry): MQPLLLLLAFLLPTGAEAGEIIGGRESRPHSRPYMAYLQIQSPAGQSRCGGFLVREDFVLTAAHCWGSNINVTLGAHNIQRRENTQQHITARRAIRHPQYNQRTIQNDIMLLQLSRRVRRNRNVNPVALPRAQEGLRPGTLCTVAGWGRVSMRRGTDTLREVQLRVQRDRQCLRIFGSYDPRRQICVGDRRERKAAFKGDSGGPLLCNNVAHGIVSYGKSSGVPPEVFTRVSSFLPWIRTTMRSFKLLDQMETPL

Chain of Histamine H2 receptor (P25021 whole entry): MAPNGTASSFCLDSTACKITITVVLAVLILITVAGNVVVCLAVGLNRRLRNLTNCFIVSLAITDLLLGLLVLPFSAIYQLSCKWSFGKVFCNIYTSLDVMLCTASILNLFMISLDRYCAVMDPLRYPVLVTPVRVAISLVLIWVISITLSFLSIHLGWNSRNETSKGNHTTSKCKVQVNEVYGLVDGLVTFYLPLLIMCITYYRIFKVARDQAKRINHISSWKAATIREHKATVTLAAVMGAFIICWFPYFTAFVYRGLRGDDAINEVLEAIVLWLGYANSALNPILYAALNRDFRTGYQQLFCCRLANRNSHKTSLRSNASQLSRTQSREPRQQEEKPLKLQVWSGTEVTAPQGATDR

Row | Molecule | IC50 [1] | IC50 [2] | IC50 (Histamine H2 receptor; cho-k1) | IC50 [3] | Ki [3] | IC50 ([4]; reticulocytes) | IC50 [5] | Ki [5] | IC50 (Cathepsin G) | IC50 ([4]; read-out: IC50) [µM] | Ki [1] | Ki [2] | Ki (Histamine H2 receptor; cho-k1) | Ki ([4]; reticulocytes) | Ki (Cathepsin G) | IC50 (Histamine H2 receptor; read-out: IC50) [nM] | Ki (Histamine H2 receptor; read-out: Ki) [nM]
1 | O=C1c2ccccc2C(=O)C1c1ccccc1 [PHENINDIONE] | Not Active | Not Active | Not Active | Not Active | Not Active | Not Active | Not Active | Not Active | Not Active |  |  |  |  |  |  |  | 
2 | Clc1cc(Cl)c(OCC#CI)cc1Cl [HALOPROGIN] | Not Active | Not Active | Not Active | Not Active | Not Active | Not Active | Not Active | Not Active | Not Active |  |  |  |  |  |  |  | 
3 | C[C@H]1C[C@H]2[C@@H]3CCC4=CC(=O)C=C[C@]4(C)[C@@]3(F)[C@@H](O)C[C@]2(C)[C@@]1(O)C(=O)CO [BETAMETHASONE] | Not Active | Not Active | Not Active | Not Active | Not Active | Not Active | Not Active | Not Active | Not Active |  |  |  |  |  |  |  | 
4 | COc1ccc(Cl)cc1C(=O)NCCc1ccc(S(=O)(=O)NC(=O)NC2CCCCC2)cc1 [GLYBURIDE] | Not Active | Not Active | Not Active | Not Active | Not Active | Not Active | Not Active | Not Active | Not Active |  |  |  |  |  |  |  | 
5 | CC1(COc2ccc(CC3SC(=O)NC3=O)cc2)CCCCC1 (stereo not given) [CIGLITAZONE] | Not Active | Not Active | Not Active | Not Active | Not Active | Not Active | Not Active | Not Active | Not Active |  |  |  |  |  |  |  | 
6 | Cc1ccnc2c1NC(=O)c1cccnc1N2C1CC1 [NEVIRAPINE] | Not Active | Not Active | Not Active | Not Active | Not Active | Not Active | Not Active | Not Active | Not Active |  |  |  |  |  |  |  | 
7 | CNC[C@H](O)c1ccc(O)c(O)c1 [EPINEPHRINE] | Not Active | Not Active | Not Active | Not Active | Not Active |  | Not Active | Not Active | Not Active | 3.28 |  |  |  |  |  |  | 
8 | CN(Cc1cc(Br)cc(Br)c1N)C1CCCCC1 [BROMHEXINE] | Not Active | Not Active | Not Active | Not Active | Not Active | Not Active | Not Active | Not Active | Not Active |  |  |  |  |  |  |  | 
9 | COPPER(II) OXIDE | Not Active | Not Active | Not Active | Not Active | Not Active | Not Active | Not Active | Not Active | Not Active |  | Not Active | Not Active | Not Active | Not Active | Not Active |  | 
10 | CCN1C[C@]2(COC)[C@H](O)C[C@H](OC)[C@@]34[C@@H]5C[C@@]6(O)[C@H](OC(=O)c7ccccc7)[C@@H]5[C@@](OC(C)=O)([C@@H]([C@H](OC)[C@H]23)[C@@H]14)[C@@H](O)[C@@H]6OC [ACONITINE] | Not Active | Not Active | Not Active | Not Active | Not Active | Not Active | Not Active | Not Active | Not Active |  |  |  |  |  |  |  | 
11 | COc1ccc(C[C@H](N)C(=O)N[C@H]2[C@@H](O)[C@H](n3cnc4c(N(C)C)ncnc43)O[C@@H]2CO)cc1 [PUROMYCIN] | Not Active | Not Active | Not Active | Not Active | Not Active | Not Active | Not Active | Not Active | Not Active |  |  |  |  |  |  |  | 
12 | OC[C@H]1OC2C3[C@@H](CO)OC(O[C@H]4[C@H](O)[C@@H](O)[C@@H](O[C@H]5[C@H](O)[C@@H](O)[C@@H](O[C@H]6[C@H](O)[C@@H](O)[C@@H](O[C@H]7[C@H](O)[C@@H](O)[C@@H](O[C@H]8[C@H](O)[C@@H](O)[C@@H](O[C@H]9[C@H](O)[C@@H](O)C(OC1[C@H](O)[C@H]2O)O[C@@H]9CO)O[C@@H]8CO)O[C@@H]7CO)O[C@@H]6CO)O[C@@H]5CO)O[C@@H]4CO)[C@H](O)[C@H]3O | Not Active | Not Active | Not Active | Not Active | Not Active | Not Active | Not Active | Not Active | Not Active |  |  |  |  |  |  |  | 
13 | NC(N)=Nc1nc(CSCCC(N)=NS(N)(=O)=O)cs1 [FAMOTIDINE] | Not Active | Not Active |  | Not Active | Not Active | Not Active | Not Active | Not Active | Not Active |  |  |  |  |  |  | 42 | 41
14 | C[N+](C)(C)CCOP(=O)([O-])OC[C@H](O)CO | Not Active | Not Active | Not Active | Not Active | Not Active | Not Active | Not Active | Not Active | Not Active |  |  |  |  |  |  |  | 
15 | COc1cc(/C=C/C(=O)O)ccc1O [FERULATE] | Not Active | Not Active | Not Active | Not Active | Not Active |  | Not Active | Not Active | Not Active | 3.98 |  |  |  |  |  |  | 
16 | NC(=O)NC(=O)Cc1ccccc1 [PHENACEMIDE] | Not Active | Not Active | Not Active | Not Active | Not Active | Not Active | Not Active | Not Active | Not Active |  |  |  |  |  |  |  | 
17 | NC(=O)CN1CCCC1=O | Not Active | Not Active | Not Active | Not Active | Not Active | Not Active | Not Active | Not Active | Not Active |  |  |  |  |  |  |  | 
18 | CC(C)Cn1cnc2c(N)nc3ccccc3c21 [IMIQUIMOD] | Not Active | Not Active |  | Not Active | Not Active | Not Active | Not Active | Not Active | Not Active |  |  |  |  |  |  | 1510 | 1480
19 | CCO [ALCOHOL] | Not Active | Not Active | Not Active | Not Active | Not Active | Not Active | Not Active | Not Active | Not Active |  |  |  |  |  |  |  | 
20 | C[C@H](C(=O)O)c1ccc2oc(-c3ccc(F)cc3)nc2c1 [FLUNOXAPROFEN] | Not Active | Not Active | Not Active | Not Active | Not Active | Not Active | Not Active | Not Active | Not Active |  |  |  |  |  |  |  | 
21 | O=C(O)c1ccccc1 [BENZOIC ACID] | Not Active | Not Active | Not Active | Not Active | Not Active | Not Active | Not Active | Not Active | Not Active |  |  |  |  |  |  |  | 
22 | CN(CCOc1ccc(C[C@H](Nc2ccccc2C(=O)c2ccccc2)C(=O)O)cc1)c1ccccn1 | Not Active | Not Active | Not Active | Not Active | Not Active | Not Active | Not Active | Not Active | Not Active |  |  |  |  |  |  |  | 
